Data: PubChem BioAssay (NCI)
Where “and” joins values, the source holds several entries; their conditions need not be identical. Equal values may be shown once.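 A five-concentration, 48-hour dose response in 96-well plates underlies each endpoint, interpolated linearly between surrounding concentrations. The concentration for 50% growth inhibition is given as GI50. TGI: total growth inhibition.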 *1 amine or outer side, *2 acyl side, *3 side chain or, on linkers, in order; H or OH if unused. Where a SMILES comes first, the peptide text is derived from it. Bridges are numbered along the chain shown (N, C = ends). [ ]: non-standard residue; d: D form. The star is where a group is joined. ξ: configuration not given here. X34 = O=C(C(CCCCNO[*:3])N[*:1])[*:2]; Fmoc = O=C(OCC1c2ccccc2-c2ccccc21)*; ξW = NC(Cc1c[nH]c2ccccc12)C(=O)O; ξP = O=C(O)C1CCCN1

Columns and labels:
Assay in all cases: inhibition of tumour cell growth, NCI panel, 48 h
[1] = test system: K-562 leukemia
[2] = test system: NCI/ADR-RES ovarian
[3] = test system: OVCAR-4 ovarian
[4] = test system: SK-OV-3 ovarian
[5] = test system: OVCAR-8 ovarian
[6] = test system: U251 CNS
[7] = test system: COLO 205 colon
[8] = test system: RXF 393 renal
[9] = test system: DU-145 prostate
[10] = test system: HCT-116 colon

With O=C(O)CSc1nnc(COc2ccc(Cl)cc2)n1-c1ccccc1 the TGI [1] was greater than 100 µM, the TGI [2] was greater than 100 µM and the TGI [3] was greater than 100 µM. For the same compound, the TGI [4] was greater than 100 µM, the TGI [5] was greater than 100 µM and the TGI [6] was greater than 100 µM. The TGI [7] was greater than 100 µM, the TGI [8] was greater than 100 µM and the TGI [9] was greater than 100 µM. For the same compound, the TGI [10] was greater than 100 µM.
NC(=O)CNC(=O)C1CCCN1C(=O)C1CCCCNOC(=O)CC[C@@H](NC(=O)OCC2c3ccccc3-c3ccccc32)C(=O)NC(Cc2c[nH]c3ccccc23)C(=O)N1 (stereo partly specified) (Fmoc-[dE][ξW][X34][ξP]G-NH2; ester 1-3) was tested, and the TGI [1] was greater than 100 µM, the TGI [2] was greater than 100 µM and the TGI [3] was greater than 100 µM. For the same compound, the TGI [4] was greater than 100 µM, the TGI [5] was greater than 100 µM and the TGI [6] was greater than 100 µM. It also gave a TGI [7] greater than 100 µM, a TGI [8] greater than 100 µM and a TGI [9] greater than 100 µM. It also gave a TGI [10] greater than 100 µM.
COCOC1/C=C/CCCCC2=C(C)C=C(C1)O2 (stereo unspecified) was tested, and the TGI [1] was greater than 100 µM, the TGI [2] was greater than 100 µM and the TGI [3] was greater than 100 µM. The TGI [4] was greater than 100 µM, the TGI [5] was greater than 100 µM and the TGI [6] was greater than 100 µM. The TGI [7] was greater than 100 µM, the TGI [8] was greater than 100 µM and the TGI [9] was greater than 100 µM. The TGI [10] was greater than 100 µM.
With COc1cccc(-c2cc(=O)c3ccccc3o2)c1N the TGI [1] was greater than 100 µM, the TGI [2] was greater than 100 µM and the TGI [3] was greater than 100 µM. The TGI [4] was greater than 100 µM, the TGI [5] was greater than 100 µM and the TGI [6] was greater than 100 µM. For the same compound, the TGI [7] was greater than 100 µM, the TGI [8] was greater than 100 µM and the TGI [9] was greater than 100 µM. It also gave a TGI [10] greater than 100 µM.
For CC(=O)OCC1OC(OC(C)(C)CC/C=C(\C)[C@@H]2C/C=C(\C)CC/C=C(\C)CC2)C(O)C(O)C1OC(C)=O (stereo partly specified), the TGI [1] was 61.4 µM and > 100 µM, the GI50 [2] was 45.8 µM and 19.5 µM and the TGI [2] was > 100 µM and 38.7 µM. The GI50 [3] was > 58.7 µM and 16.2 µM, the TGI [3] was > 100 µM and 32.1 µM and the GI50 [4] was > 100 µM and 18.5 µM. The TGI [4] was > 100 µM and 34 µM, the TGI [5] was 82.3 µM and 43.5 µM and the GI50 [6] was 39.3 µM. For the same compound, the TGI [6] was greater than 100 µM, the GI50 [7] was 35.7 µM and 15.8 µM and the TGI [7] was 76.9 µM and 32.5 µM. The TGI [8] was greater than 100 µM, the GI50 [9] was > 76.3 µM and 17 µM and the TGI [9] was > 100 µM and 32.1 µM. The TGI [10] was > 60.1 µM and 60.9 µM.
Work on CCCCN1C(=O)CC2[C@@H]3CCc4cc(OC(C)=O)ccc4C3CC[C@]2(C)C1=O (stereo partly specified) yielded a TGI [1] greater than 10 µM, a TGI [2] greater than 10 µM and a TGI [3] greater than 10 µM. For the same compound, the TGI [4] was greater than 10 µM, the TGI [5] was greater than 10 µM and the TGI [6] was greater than 10 µM. For the same compound, the TGI [7] was greater than 10 µM, the TGI [8] was greater than 10 µM and the TGI [9] was greater than 10 µM. It also gave a TGI [10] greater than 10 µM.
For CC(C)(N=NC(C)(C)C(=O)NCCO)C(=O)NCCO, the TGI [1] was greater than 100 µM, the TGI [2] was greater than 100 µM and the TGI [3] was greater than 100 µM. The TGI [4] was greater than 100 µM, the TGI [5] was greater than 100 µM and the TGI [6] was greater than 100 µM. It also gave a TGI [7] greater than 100 µM, a TGI [8] greater than 100 µM and a TGI [9] greater than 100 µM. It also gave a TGI [10] greater than 100 µM.
With CSc1nc(Cl)c2c(n1)Sc1nc3cc4c(cc3n1C2O)OCCO4 (stereo unspecified) the TGI [1] was 17.6 µM, the TGI [2] was 0.407 µM and the TGI [3] was 44.2 µM. It also gave a TGI [4] greater than 53.4 µM, a TGI [5] of 3.03 µM and a TGI [6] of 14.3 µM. It also gave a TGI [7] of 0.142 µM, a TGI [8] of 19.3 µM and a TGI [9] of 15.9 µM. It also gave a TGI [10] of 26.6 µM.
For O=C(CN1c2ccccc2Sc2ccccc21)N1CCNCC1, the TGI [1] was greater than 100 µM, the TGI [2] was greater than 100 µM and the TGI [3] was greater than 100 µM. It also gave a TGI [4] greater than 100 µM, a TGI [5] greater than 100 µM and a TGI [6] greater than 100 µM. The TGI [7] was greater than 100 µM, the TGI [8] was greater than 100 µM and the TGI [9] was greater than 100 µM. The TGI [10] was greater than 100 µM.
In the case of CCOC(=O)CNC(=O)C(CSCc1ccc(Br)cc1)NC(=O)CCC(N)C(=O)OCC (stereo unspecified), the TGI [1] is reported as greater than 50 µM, the TGI [2] is reported as greater than 50 µM and the TGI [3] is reported as greater than 50 µM. For the same compound, the TGI [4] was greater than 50 µM, the TGI [5] was greater than 50 µM and the TGI [6] was greater than 50 µM. It also gave a TGI [7] greater than 50 µM, a TGI [8] greater than 50 µM and a TGI [9] greater than 50 µM. The TGI [10] was greater than 50 µM.
With COc1ccc2[nH]c(O)c(/C=c3/cc4c(c(-c5cc(OC)c(OC)c(OC)c5)n3)=Nc3ccccc3-4)c2c1 the GI50 [1] was 4.14 µM, the TGI [1] was greater than 100 µM and the GI50 [2] was 3.3 µM. It also gave a TGI [2] greater than 100 µM, a GI50 [3] of 4.41 µM and a TGI [3] greater than 100 µM. The GI50 [4] was greater than 100 µM, the TGI [4] was greater than 100 µM and the GI50 [5] was 3.77 µM. For the same compound, the TGI [5] was greater than 100 µM, the GI50 [6] was 3.53 µM and the TGI [6] was greater than 100 µM. The GI50 [7] was 3.67 µM, the TGI [7] was 21.5 µM and the GI50 [8] was 2.41 µM. It also gave a TGI [8] of 41.9 µM, a GI50 [9] of 88.2 µM and a TGI [9] greater than 100 µM. It also gave a GI50 [10] of 3.49 µM and a TGI [10] of 64.7 µM.
Work on CCN1CC2=C(NC(=S)NC2c2ccc(Cl)cc2)/C(=C/c2ccc(Cl)cc2)C1 (stereo unspecified) yielded a TGI [1] greater than 100 µM, a TGI [2] greater than 100 µM and a TGI [3] greater than 100 µM. The TGI [4] was greater than 100 µM, the TGI [5] was greater than 100 µM and the TGI [6] was greater than 100 µM. The TGI [7] was greater than 100 µM, the TGI [8] was greater than 100 µM and the TGI [9] was greater than 100 µM. It also gave a TGI [10] greater than 100 µM.
Compound CN(C)/N=N/c1nc2c(c(=O)n(C)c(=O)n2C)n1C has a TGI [1] greater than 100 µM, a TGI [2] greater than 100 µM and a TGI [3] greater than 100 µM. The TGI [4] was greater than 100 µM, the TGI [5] was greater than 100 µM and the TGI [6] was greater than 100 µM. The TGI [7] was greater than 100 µM, the TGI [8] was greater than 100 µM and the TGI [9] was greater than 100 µM. The TGI [10] was greater than 100 µM.
In the case of COc1cccc2c(N)c3cccc(C(=O)NCCN(C)C)c3nc12, the TGI [1] is reported as 0.383 µM, the TGI [2] is reported as 12.4 µM and the TGI [3] is reported as 0.656 µM. The TGI [4] was 1.97 µM, the TGI [5] was 0.594 µM and the TGI [6] was 1.57 µM. It also gave a TGI [7] of 0.592 µM, a TGI [8] of 0.88 µM and a TGI [9] of 2.64 µM. It also gave a TGI [10] of 0.726 µM.
For OCCCCCNc1c2ccccc2nc2ccccc12, the TGI [1] was 14.2 µM, the TGI [2] was greater than 57.2 µM and the TGI [3] was 11.4 µM. The TGI [4] was 13.7 µM, the TGI [5] was 8.72 µM and the TGI [6] was 20.8 µM. For the same compound, the TGI [7] was 4.54 µM, the TGI [8] was 10.9 µM and the TGI [9] was 25.3 µM. It also gave a TGI [10] of 21.1 µM.
CC(CN1c2ccccc2Sc2ccccc21)N(C)C (stereo unspecified) was tested, and the TGI [1] was 36.1 µM, the TGI [2] was 30.5 µM and the TGI [3] was 32.5 µM. For the same compound, the TGI [4] was 32.6 µM, the TGI [5] was 29.8 µM and the TGI [6] was 27.7 µM. The TGI [7] was 29.2 µM, the TGI [8] was 37.5 µM and the TGI [9] was 34.9 µM. For the same compound, the TGI [10] was 28.9 µM.
C[N+]1=C2[B-](C(C)(C)C)=[N+](C(C)(C)C)[B-]2(C(C)(C)C)[N+](C)=C2[B-](C(C)(C)C)=[N+](C(C)(C)C)[B-]21C(C)(C)C (stereo unspecified) gave a TGI [1] greater than 100 µM, a TGI [2] greater than 100 µM and a TGI [3] greater than 100 µM. For the same compound, the TGI [4] was greater than 100 µM, the TGI [5] was greater than 100 µM and the TGI [6] was greater than 100 µM. For the same compound, the TGI [7] was greater than 100 µM, the TGI [8] was greater than 100 µM and the TGI [9] was greater than 100 µM. The TGI [10] was greater than 100 µM.
